This is an account of results in PubChem BioAssay (NCI).

Some test systems named below: 786-0 renal; BT-549 breast; KM12 colon; NCI/ADR-RES ovarian; OVCAR-4 ovarian; OVCAR-8 ovarian; SK-MEL-2 melanoma; SR leukemia.
What all share (assay): NCI anticancer screen, dose series, 48 h

Several values for one entry are separate records, joined by “and”; a condition that tells them apart may be missing. Identical values can stand only once.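 A five-concentration, 48-hour dose response in 96-well plates underlies each endpoint, interpolated linearly between surrounding concentrations. Abbreviation: GI50, concentration required for 50% inhibition of growth. TGI: total growth inhibition.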

Regarding `Fc1ccc(CNc2c3ccccc3nc3ccccc23)cc1`, the GI50 with 786-0 renal is 3.02 µM; with BT-549 breast, 4.66 µM; in the assay on KM12 colon, 3.27 µM; with NCI/ADR-RES ovarian, 2.33 µM; in the assay with OVCAR-4 ovarian it was 2.05 µM; in the assay on OVCAR-8 ovarian, 2.64 µM. Further, the GI50 with SK-MEL-2 melanoma was 2.39 µM; in the assay with SR leukemia it was 2.2 µM. Further, the TGI in the assay with 786-0 renal was found to be 11.7 µM; with BT-549 breast it was 18 µM; in the assay on KM12 colon, 13.6 µM; with NCI/ADR-RES ovarian, 8.07 µM; in the assay with OVCAR-4 ovarian it was 7.34 µM; with OVCAR-8 ovarian, 12.5 µM. The TGI with SK-MEL-2 melanoma stood at 6.01 µM; with SR leukemia it was 7.75 µM.
With `CCOC(=O)c1ccc2c(c1)[n+](=O)c(C(=O)c1ccc3ccccc3c1)c(C(F)(F)F)n2[O-]`, the GI50 with 786-0 renal is 1.61 µM; in the assay with BT-549 breast, 1.53 µM; in the assay on KM12 colon it was 1.25 µM; with NCI/ADR-RES ovarian, 1.61 µM; in the assay with OVCAR-4 ovarian, 0.261 µM; in the assay on OVCAR-8 ovarian, 1.28 µM. Further, the GI50 is 1.82 µM in the assay on SK-MEL-2 melanoma and 0.331 µM in the assay on SR leukemia. For the same compound, the TGI in the assay with 786-0 renal stood at 2.99 µM; with BT-549 breast, 3.28 µM; in the assay with KM12 colon it was 2.51 µM; in the assay on NCI/ADR-RES ovarian, 3.31 µM; with OVCAR-4 ovarian it was 0.848 µM; in the assay on OVCAR-8 ovarian it was 2.7 µM. Besides, the figures for the TGI with SK-MEL-2 melanoma and in the assay on SR leukemia were 3.4 µM and 1.6 µM, respectively.
Turning to `CCOC(=O)C1=C(N)Oc2c(sc3c(C)cccc23)C1c1ccc(Cl)cc1` (configuration not stated), the GI50 with 786-0 renal was 4.05 µM; with BT-549 breast it was 3.3 µM; with KM12 colon, 1.62 µM; with NCI/ADR-RES ovarian, 0.952 µM; in the assay on OVCAR-4 ovarian, 6.92 µM; with OVCAR-8 ovarian it was 4.24 µM. For the same compound, the GI50 in the assay with SK-MEL-2 melanoma was 5.83 µM; in the assay on SR leukemia, 1.49 µM. Also, the TGI with 786-0 renal worked out at 16.8 µM; with BT-549 breast, 15.8 µM; in the assay with KM12 colon it was 13.3 µM; in the assay on NCI/ADR-RES ovarian, 7.18 µM; in the assay with OVCAR-4 ovarian, 21 µM; in the assay on OVCAR-8 ovarian, 20.7 µM. Moreover, the TGI with SK-MEL-2 melanoma amounted to 22.4 µM; in the assay on SR leukemia it was 18 µM.
`CC1(C)CC(=O)C(C(c2cccc(O)c2O)C2C(=O)CC(C)(C)CC2=O)C(=O)C1`: the TGI in the assay with 786-0 renal, in the assay on BT-549 breast, in the assay on KM12 colon, in the assay on NCI/ADR-RES ovarian, with OVCAR-4 ovarian and in the assay on OVCAR-8 ovarian was > 100 µM in each case. For the same compound, the TGI with SK-MEL-2 melanoma and in the assay with SR leukemia was > 100 µM in each case.
In the case of `CCc1ccc(CCC(=O)Nc2ncc(Cc3cc(Cl)ccc3Cl)s2)o1`, the GI50 in the assay on 786-0 renal is 2.7 µM; in the assay with BT-549 breast it was > 50 µM; in the assay on KM12 colon, 1.12 µM; with NCI/ADR-RES ovarian it was 1.6 µM; in the assay with OVCAR-4 ovarian, 1.78 µM; in the assay with OVCAR-8 ovarian it was 2.25 µM. Further, the GI50 in the assay with SK-MEL-2 melanoma is 2.66 µM; in the assay with SR leukemia it was 0.22 µM. For the same compound, the TGI in the assay on 786-0 renal is > 50 µM; in the assay on BT-549 breast it was > 50 µM; in the assay on KM12 colon, > 50 µM; in the assay on NCI/ADR-RES ovarian it was > 50 µM; in the assay with OVCAR-4 ovarian, 12.6 µM; with OVCAR-8 ovarian it was > 50 µM. Besides, the TGI in the assay with SK-MEL-2 melanoma is > 50 µM; with SR leukemia, 7.92 µM.
In the case of `O=C(/C=C/c1ccccn1)c1ccccc1O`, the GI50 with 786-0 renal was 1.75 µM; in the assay with BT-549 breast, 2.98 µM; with KM12 colon it was 1.55 µM; with NCI/ADR-RES ovarian it was 2.87 µM; in the assay with OVCAR-4 ovarian, 2.98 µM; in the assay on OVCAR-8 ovarian, 3.34 µM. The GI50 is 2.31 µM in the assay on SK-MEL-2 melanoma and 1.7 µM in the assay on SR leukemia. Moreover, the TGI in the assay on 786-0 renal was 3.14 µM; in the assay on BT-549 breast it was 9.71 µM; with KM12 colon, 3.04 µM; in the assay with NCI/ADR-RES ovarian, 9.07 µM; in the assay on OVCAR-4 ovarian, 8.84 µM; in the assay with OVCAR-8 ovarian, 12.2 µM. For the same compound, the values for the TGI in the assay on SK-MEL-2 melanoma and in the assay on SR leukemia were 4.88 µM and 4.99 µM, respectively.
Turning to `C=C1C(=O)O[C@H]2[C@H]1CC/C(C=Nc1ccc(C(F)(F)F)cc1N)=C\CC[C@@]1(C)O[C@@H]21`, the GI50 in the assay on 786-0 renal was 5.86 µM; in the assay with BT-549 breast, 7.04 µM; in the assay on KM12 colon it was 13.4 µM; in the assay with NCI/ADR-RES ovarian, 8.09 µM; with OVCAR-4 ovarian, 4.44 µM; in the assay on OVCAR-8 ovarian it was 4.29 µM. Further, the GI50 is 11.9 µM in the assay on SK-MEL-2 melanoma and 2.66 µM with SR leukemia. The TGI in the assay with 786-0 renal stood at 18.5 µM; in the assay on BT-549 breast it was 20.2 µM; in the assay on KM12 colon it was 28.3 µM; in the assay with NCI/ADR-RES ovarian, 45.2 µM; with OVCAR-4 ovarian, 20.6 µM; in the assay on OVCAR-8 ovarian, 15.9 µM. Besides, the TGI with SK-MEL-2 melanoma stood at 26.5 µM; in the assay with SR leukemia it was 10.7 µM.
Regarding `C=C1C(=O)O[C@H]2[C@H]1CC/C(COC(=O)/C=C\C(=O)NCc1ccc(Cn3c(=O)sn(-c4ccc(OC)cc4)c3=O)cc1)=C\CC[C@@]1(C)O[C@@H]21`, the GI50 in the assay on 786-0 renal is 0.665 µM; in the assay on BT-549 breast, 0.562 µM; in the assay with KM12 colon it was 0.884 µM; with NCI/ADR-RES ovarian, 1.11 µM; in the assay with OVCAR-4 ovarian it was 0.706 µM; in the assay on OVCAR-8 ovarian, 0.755 µM. Further, the GI50 in the assay on SK-MEL-2 melanoma is 0.882 µM; in the assay on SR leukemia, 0.322 µM. For the same compound, the TGI in the assay on 786-0 renal was 1.37 µM; in the assay with BT-549 breast, 1.29 µM; in the assay on KM12 colon it was 1.81 µM; with NCI/ADR-RES ovarian it was 4.32 µM; in the assay with OVCAR-4 ovarian it was 1.39 µM; in the assay on OVCAR-8 ovarian, 2.62 µM. For the same compound, the TGI in the assay on SK-MEL-2 melanoma came out at 1.94 µM; with SR leukemia, 11.8 µM.
On to `O=C(O)c1cc(N/C=C2\C(=O)c3ccccc3OC2O)ccc1O` (configuration not stated), for which the GI50 in the assay on 786-0 renal is 30.8 µg/mL; in the assay on BT-549 breast, 15 µg/mL; in the assay with KM12 colon, 25.7 µg/mL; in the assay on NCI/ADR-RES ovarian, 21.1 µg/mL; with OVCAR-4 ovarian, 29 µg/mL; with OVCAR-8 ovarian, 27.4 µg/mL. Further, the values for the GI50 in the assay on SK-MEL-2 melanoma and in the assay on SR leukemia were 30.6 µg/mL and 4.77 µg/mL, respectively. Besides, the TGI in the assay with 786-0 renal was 57.7 µg/mL; in the assay with BT-549 breast it was 71.8 µg/mL; in the assay with KM12 colon, 51.6 µg/mL; in the assay with NCI/ADR-RES ovarian, 82.8 µg/mL; with OVCAR-4 ovarian, > 150 µg/mL; in the assay on OVCAR-8 ovarian, > 150 µg/mL. For the same compound, the figures for the TGI with SK-MEL-2 melanoma and in the assay with SR leukemia were 68.7 µg/mL and 36.9 µg/mL, respectively.
Consider `CCCCCCCCCCCCOC1C(CNC(=O)C2OC3OC(C)(C)OC3C2NC(=O)CN2CCN(c3ccccn3)CC2)OC2OC(C)(C)OC21` (configuration not stated), for which the GI50 in the assay with 786-0 renal is 1.79 µM; in the assay on BT-549 breast, 1.83 µM; in the assay with KM12 colon, 2.16 µM; with NCI/ADR-RES ovarian, 2.64 µM; in the assay on OVCAR-4 ovarian it was 2.52 µM; in the assay on OVCAR-8 ovarian, 1.62 µM. Moreover, in the assay with SK-MEL-2 melanoma, the GI50 was 1.65 µM. Also, the TGI in the assay with 786-0 renal was determined as 3.22 µM; in the assay with BT-549 breast, 3.39 µM; with KM12 colon it was 4.43 µM; in the assay on NCI/ADR-RES ovarian, 7.39 µM; in the assay on OVCAR-4 ovarian, 7.7 µM; in the assay on OVCAR-8 ovarian it was 3.15 µM. Also, the results for the TGI with SK-MEL-2 melanoma and with SR leukemia were 3.32 µM and 1.86 µM, respectively.
In the case of `O=C1Nc2cc(Cl)ccc2Oc2cc(Oc3ccccc3)ccc21`, the GI50 is 8.96 µM in the assay on 786-0 renal; 8.97 µM in the assay on BT-549 breast; 2.09 µM in the assay with KM12 colon; 2.53 µM with NCI/ADR-RES ovarian; 6.52 µM with OVCAR-4 ovarian; 8.81 µM in the assay with OVCAR-8 ovarian. The GI50 was 4.99 µM in the assay on SK-MEL-2 melanoma and 2.89 µM in the assay with SR leukemia. In addition, the TGI in the assay with 786-0 renal worked out at 42.2 µM; with BT-549 breast, 51.1 µM; with KM12 colon it was 14 µM; with NCI/ADR-RES ovarian, 9.77 µM; in the assay on OVCAR-4 ovarian, 23.8 µM; in the assay with OVCAR-8 ovarian it was 78.4 µM. Further, the results for the TGI in the assay on SK-MEL-2 melanoma and in the assay on SR leukemia were 35.7 µM and 29.5 µM, respectively.
Consider `COc1ccc(-c2cc(-c3ccc(O)cc3)nc3nc(=S)[nH]c(N)c23)cc1`, for which the GI50 is 22.8 µM with 786-0 renal; 12.4 µM in the assay on BT-549 breast; 16.9 µM in the assay on KM12 colon; 26.1 µM in the assay with NCI/ADR-RES ovarian; 25.3 µM in the assay with OVCAR-4 ovarian; 16.1 µM with OVCAR-8 ovarian. The values for the GI50 in the assay with SK-MEL-2 melanoma and in the assay on SR leukemia were 18.4 µM and 6.94 µM, respectively. Also, the TGI in the assay with 786-0 renal is 56.6 µM; in the assay with BT-549 breast, 32.7 µM; in the assay with KM12 colon, 41.3 µM; in the assay with NCI/ADR-RES ovarian, 66.3 µM; in the assay on OVCAR-4 ovarian, > 100 µM; in the assay on OVCAR-8 ovarian it was 43.1 µM. The TGI with SK-MEL-2 melanoma is 41.2 µM; in the assay on SR leukemia, > 100 µM.
As to `CS(=O)(=O)N1CCN(Cc2cc3nc(-c4cccc5[nH]ncc45)nc(N4CCOCC4)c3s2)CC1`, the GI50 in the assay on 786-0 renal is 0.281 µM; in the assay on BT-549 breast, 0.271 µM and 0.231 µM; with KM12 colon it was 1.36 µM and 0.754 µM; in the assay with NCI/ADR-RES ovarian it was 1.76 µM and 1.44 µM; in the assay on OVCAR-4 ovarian, 2.77 µM and 0.894 µM; in the assay on OVCAR-8 ovarian, 0.789 µM and 0.594 µM. For the same compound, the GI50 was 1.27 µM and 0.325 µM in the assay on SK-MEL-2 melanoma; 2.46 µM and 2.02 µM in the assay with SR leukemia. Besides, the TGI in the assay on 786-0 renal was 2.46 µM; in the assay on BT-549 breast, > 100 µM; in the assay on KM12 colon, > 100 µM; with NCI/ADR-RES ovarian, > 100 µM; with OVCAR-4 ovarian, > 100 µM; in the assay on OVCAR-8 ovarian, > 100 µM. The TGI in the assay with SK-MEL-2 melanoma and with SR leukemia was > 100 µM throughout.
As for `O=C(O)CNC(=O)c1ccccc1O`, the TGI in the assay with 786-0 renal, in the assay on BT-549 breast, in the assay with KM12 colon, in the assay with NCI/ADR-RES ovarian, in the assay with OVCAR-4 ovarian and with OVCAR-8 ovarian was > 100 µM in each case. The TGI with SK-MEL-2 melanoma and with SR leukemia was > 100 µM in each case.
